From ChEMBL document CHEMBL1201862, “PubChem BioAssay data set” (2004)
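96-well plates; 48 h exposure; 5 concentrations. Endpoints by linear interpolation between flanking doses. Not reached: highest tested concentration assigned. GI50 = concentration required for 50% inhibition of growth.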 The source made the active and inactive calls. No stated cut-off is given here; in the data, active = GI50 up to about 1.1 µM and inactive = higher.

Tests used:
Test in all cases: DTP human tumour cell line panel, 48 h
MOLT-4 = system: MOLT-4
OVCAR-8 = system: OVCAR-8
NCI-H522 = system: NCI-H522
M19-MEL = system: M19-MEL
Malme-3M = system: Malme-3M
SNB-75 = system: SNB-75
HT-29 = system: HT-29
CCRF-CEM = system: CCRF-CEM
TK-10 = system: TK-10
EKVX = system: EKVX
ACHN = system: ACHN
RPMI-8226 = system: RPMI-8226
HCT-15 = system: HCT-15
OVCAR-5 = system: OVCAR-5
HOP-92 = system: HOP-92
OVCAR-4 = system: OVCAR-4
A498 = system: A498
MCF7 = system: MCF7
PC-3 = system: PC-3
SK-MEL-2 = system: SK-MEL-2

Row | SMILES | GI50 (MOLT-4) | GI50 (OVCAR-8) | GI50 (NCI-H522) | GI50 (M19-MEL) | GI50 (Malme-3M) | GI50 (SNB-75) | GI50 (HT-29) | GI50 (CCRF-CEM) | GI50 (TK-10) | GI50 (EKVX) | GI50 (ACHN) | GI50 (RPMI-8226) | GI50 (HCT-15) | GI50 (OVCAR-5) | GI50 (HOP-92) | GI50 (OVCAR-4) | GI50 (A498) | GI50 (MCF7) | GI50 (PC-3) | GI50 (SK-MEL-2)
1 | CC(=O)Nc1ccc2c(c1)C(=O)c1ccccc1-2 | > 100 µM (inactive) | > 100 µM (inactive) | > 100 µM (inactive) | > 100 µM (inactive) | > 100 µM (inactive) | > 100 µM (inactive) | > 100 µM (inactive) | > 100 µM (inactive) | > 100 µM (inactive) | > 100 µM (inactive) | > 100 µM (inactive) | > 100 µM (inactive) | > 100 µM |  |  |  |  |  |  | 
2 | CC(=O)OCC1OC(OCc2ccccc2)C(Br)C(OC(C)=O)C1OC(C)=O (centres undefined) | > 100 µM (inactive) | > 100 µM (inactive) | > 100 µM (inactive) | > 100 µM (inactive) | > 100 µM (inactive) |  | > 100 µM (inactive) | > 100 µM (inactive) | > 100 µM (inactive) |  | > 100 µM (inactive) | > 100 µM (inactive) | > 100 µM | > 100 µM (inactive) | > 100 µM (inactive) | > 100 µM (inactive) | > 100 µM (inactive) |  |  | 
3 | CCNc1nnc(-c2ccccc2Nc2ccccc2-c2nnc(NCC)s2)s1 | 4.35 µM (inactive) | 13.6 µM (inactive) | 6.75 µM (inactive) |  | 19.2 µM (inactive) | 18.2 µM (inactive) | 10.9 µM (inactive) | 4.18 µM (inactive) | 11.4 µM (inactive) | 20.9 µM (inactive) | 7.35 µM (inactive) | 14 µM (inactive) | 4.37 µM | 18.2 µM (inactive) | 5.92 µM (inactive) | 27.5 µM (inactive) | 13.5 µM (inactive) | 2.28 µM (inactive) | 17 µM (inactive) | 9.77 µM (inactive)
4 | O=C(Nc1nc2ccc([N+](=O)[O-])cc2s1)C(=O)C(C(=O)c1ccncc1)C1OC(=O)c2ccccc21 (centres undefined) | > 100 µM (inactive) | > 100 µM (inactive) |  | > 100 µM (inactive) | > 100 µM (inactive) | 33.9 µM (inactive) | > 100 µM (inactive) | > 100 µM (inactive) |  | 92.5 µM (inactive) | > 100 µM (inactive) | > 100 µM (inactive) | > 100 µM | > 100 µM (inactive) | > 100 µM (inactive) | > 100 µM (inactive) | 48.6 µM (inactive) |  |  | 
5 | Cc1c(/C=N/NC(=O)c2ccc(Cl)cc2)c(=O)n(-c2ccccc2)n1C | > 100 µM (inactive) | > 100 µM (inactive) | > 100 µM (inactive) | > 100 µM (inactive) | > 100 µM (inactive) | > 100 µM (inactive) | > 100 µM (inactive) | > 100 µM (inactive) | > 100 µM (inactive) | > 100 µM (inactive) | > 100 µM (inactive) | > 100 µM (inactive) | > 100 µM |  | > 100 µM (inactive) | > 100 µM (inactive) |  |  |  | > 100 µM (inactive)
6 | Cc1cccc(NC(=O)CC#N)c1Cl | > 100 µM (inactive) |  | > 100 µM (inactive) | > 100 µM (inactive) | > 100 µM (inactive) | > 100 µM (inactive) | > 100 µM (inactive) | > 100 µM (inactive) | > 100 µM (inactive) | > 100 µM (inactive) | > 100 µM (inactive) | > 100 µM (inactive) | > 100 µM |  | > 100 µM (inactive) |  |  |  |  | > 100 µM (inactive)
7 | COC(=O)[C@]1(c2cc3ccccc3[nH]2)CC2CN(C(=O)OCc3ccccc3)C1CC2=O (some centres undefined) | 15 µM (inactive) | 26.7 µM (inactive) | 20.6 µM (inactive) |  | 20.7 µM (inactive) | 16.5 µM (inactive) | 15.5 µM (inactive) | 28.2 µM (inactive) | 53.5 µM (inactive) | 17.1 µM (inactive) | 26.6 µM (inactive) | 17.5 µM (inactive) | 27.5 µM | 14.1 µM (inactive) | 20.4 µM (inactive) | 28.1 µM (inactive) | 20 µM (inactive) | 16.7 µM (inactive) | 17.1 µM (inactive) | 18.2 µM (inactive)
8 | O=C1C=C(NCC(c2ccccc2)c2ccccc2)C(=O)c2ncccc21 | 2.31 µM (inactive) | 2.39 µM (inactive) | 1.34 µM (inactive) |  | 1.36 µM (inactive) | 0.507 µM (active) | 7.45 µM (inactive) | 2.64 µM (inactive) | 17 µM (inactive) | 2.07 µM (inactive) | 2.28 µM (inactive) | 1.72 µM (inactive) | 0.504 µM | 5.14 µM (inactive) | 2.26 µM (inactive) | 1.84 µM (inactive) | 2.24 µM (inactive) | 1.4 µM (inactive) | 1.75 µM (inactive) | 2.28 µM (inactive)
9 | C=CC(OC(C)=O)c1ccc(OC(=O)C(C)C)c(OC)c1 (centres undefined) | 9.02 µM (inactive) | 4.81 µM (inactive) | 1.54 µM (inactive) |  | 1.94 µM (inactive) | 4.86 µM (inactive) | 2.31 µM (inactive) | 2.01 µM (inactive) | 5.04 µM (inactive) | 7.5 µM (inactive) | 3.34 µM (inactive) | 1.82 µM (inactive) | 4.98 µM | 2.51 µM (inactive) | 5.93 µM (inactive) | 4.9 µM (inactive) | 17.2 µM (inactive) | 2.36 µM (inactive) | 5.19 µM (inactive) | 4.48 µM (inactive)
